From paper PMC7914897, “Cytotoxic Potential of a-Azepano- and 3-Amino-3,4-SeCo-Triterpenoids” (International Journal of Molecular Sciences, 2021)

Legend:
[1] = test system: A549/ATCC (NSC lung cancer); assay: NCI-60 screen (SRB, 48 h); conditions: Homo sapiens
OVCAR-8 (Ovarian cancer) = assay: NCI-60 screen (SRB, 48 h); conditions: Homo sapiens
SK-MEL-2 (Melanoma) = assay: NCI-60 screen (SRB, 48 h); conditions: Homo sapiens
Renal Cancer subpanel = assay: NCI-60 screen, subpanel; conditions: Homo sapiens
M14 (Melanoma) = assay: NCI-60 screen (SRB, 48 h); conditions: Homo sapiens
COLO 205 (Colon cancer) = assay: NCI-60 screen (SRB, 48 h); conditions: Homo sapiens
HS 578T (Breast cancer) = assay: NCI-60 screen (SRB, 48 h); conditions: Homo sapiens
K-562 (Leukemia) = assay: NCI-60 screen (SRB, 48 h); conditions: Homo sapiens
HOP-62 (NSC lung cancer) = assay: NCI-60 screen (SRB, 48 h); conditions: Homo sapiens
HCT-15 (Colon cancer) = assay: NCI-60 screen (SRB, 48 h); conditions: Homo sapiens
SNB-19 (CNS cancer) = assay: NCI-60 screen (SRB, 48 h); conditions: Homo sapiens
SF-295 (CNS cancer) = assay: NCI-60 screen (SRB, 48 h); conditions: Homo sapiens
[2] = test system: NCI-H23 (NSC lung cancer); assay: NCI-60 screen (SRB, 48 h); conditions: Homo sapiens
UACC-62 (Melanoma) = assay: NCI-60 screen (SRB, 48 h); conditions: Homo sapiens
UO-31 (Renal cancer) = assay: NCI-60 screen (SRB, 48 h)
DU-145 (Prostate cancer) = assay: NCI-60 screen (SRB, 48 h); conditions: Homo sapiens
SK-MEL-28 (Melanoma) = assay: NCI-60 screen (SRB, 48 h); conditions: Homo sapiens
MCF7 (Breast cancer) = assay: NCI-60 screen (SRB, 48 h); conditions: Homo sapiens
T-47D (Breast cancer) = assay: NCI-60 screen (SRB, 48 h); conditions: Homo sapiens, T47D
ACHN (Renal cancer) = assay: NCI-60 screen (SRB, 48 h)
SW-620 (Colon cancer) = assay: NCI-60 screen (SRB, 48 h); conditions: Homo sapiens
[3] = test system: NCI/ADR-RES (Ovarian cancer); assay: NCI-60 screen (SRB, 48 h); conditions: Homo sapiens
MALME-3M (Melanoma) = assay: NCI-60 screen (SRB, 48 h); conditions: Homo sapiens
EKVX (NSC lung cancer) = assay: NCI-60 screen (SRB, 48 h); conditions: Homo sapiens
Ovarian Cancer subpanel = assay: NCI-60 screen, subpanel; conditions: Homo sapiens
HOP-92 (NSC lung cancer) = assay: NCI-60 screen (SRB, 48 h); conditions: Homo sapiens
SN12C (Renal cancer) = assay: NCI-60 screen (SRB, 48 h); conditions: Homo sapiens
Prostate cancer subpanel = assay: NCI-60 screen, subpanel; conditions: Homo sapiens

`CC1(C)NCCC[C@]2(C)[C@H]3C=CC4=C5C[C@@](C)(CO)CC[C@]5(C)CC[C@@]4(C)[C@]3(C)CC[C@@H]12` [Compound 6, azepano-glycyrrhetol-diene] was tested. Which GI50 ([1]; A549) did it give?
Its GI50 is 1.89 µM.

And the IC (TGI) ([1]; A549, 48 h, read-out: TGI)?
The IC (TGI) was 3.71 µM.

And the CC50 ([1]; A549, read-out: LC50)?
Its CC50 is 7.31 µM.

And the GI50 (OVCAR-8 (Ovarian cancer); OVCAR-8)?
The GI50 was 2.55 µM.

And the IC (TGI) (OVCAR-8 (Ovarian cancer); OVCAR-8, 48 h, read-out: TGI)?
The IC (TGI) was 6.66 µM.

And the CC50 (OVCAR-8 (Ovarian cancer); OVCAR-8, read-out: LC50)?
The CC50 was 30.8 µM.

What about the GI50 (SK-MEL-2 (Melanoma); SK-MEL-2) of the same molecule?
The GI50 was 3.31 µM.

And the IC (TGI) (SK-MEL-2 (Melanoma); SK-MEL-2, 48 h, read-out: TGI)?
The IC (TGI) was 12.2 µM.

What about the CC50 (SK-MEL-2 (Melanoma); SK-MEL-2, read-out: LC50) of the same molecule?
Its CC50 is 38.9 µM.

And the IC (TGI) (Renal Cancer subpanel; 48 h, read-out: TGI MG_MID)?
Its IC (TGI) is 11.9 µM.

What about the GI50 (Renal Cancer subpanel; read-out: GI50 MG_MID) of the same molecule?
Its GI50 is 4.01 µM.

And the CC50 (Renal Cancer subpanel; read-out: LC50 MG_MID)?
The CC50 was 35.8 µM.

And the GI50 (M14 (Melanoma); M14)?
Its GI50 is 3.91 µM.

What about the IC (TGI) (M14 (Melanoma); M14, 48 h, read-out: TGI) of the same molecule?
The IC (TGI) was 14.8 µM.

What about the CC50 (M14 (Melanoma); M14, read-out: LC50) of the same molecule?
The CC50 was 41.5 µM.

What about the GI50 (COLO 205 (Colon cancer); COLO 205) of the same molecule?
The GI50 was 3.63 µM.

And the IC (TGI) (COLO 205 (Colon cancer); COLO 205, 48 h, read-out: TGI)?
Its IC (TGI) is 13.9 µM.

And the CC50 (COLO 205 (Colon cancer); COLO 205, read-out: LC50)?
The CC50 was 43 µM.

What about the GI50 (HS 578T (Breast cancer)) of the same molecule?
The GI50 was 3.2 µM.

And the IC (TGI) (HS 578T (Breast cancer); 48 h, read-out: TGI)?
Its IC (TGI) is 13.2 µM.

And the CC50 (HS 578T (Breast cancer); read-out: LC50)?
Its CC50 is 71.2 µM.

What about the GI50 (K-562 (Leukemia); K562) of the same molecule?
The GI50 was 3.18 µM.

And the IC (TGI) (K-562 (Leukemia); K562, 48 h, read-out: TGI)?
The IC (TGI) was 10.8 µM.

And the CC50 (K-562 (Leukemia); K562, read-out: LC50)?
Its CC50 is 43.8 µM.

What about the GI50 (HOP-62 (NSC lung cancer); HOP-62) of the same molecule?
Its GI50 is 2.3 µM.

And the IC (TGI) (HOP-62 (NSC lung cancer); HOP-62, 48 h, read-out: TGI)?
The IC (TGI) was 5.16 µM.

What about the CC50 (HOP-62 (NSC lung cancer); HOP-62, read-out: LC50) of the same molecule?
Its CC50 is 16.7 µM.

What about the GI50 (HCT-15 (Colon cancer); HCT-15) of the same molecule?
Its GI50 is 4.21 µM.

And the IC (TGI) (HCT-15 (Colon cancer); HCT-15, 48 h, read-out: TGI)?
Its IC (TGI) is 16.4 µM.

What about the CC50 (HCT-15 (Colon cancer); HCT-15, read-out: LC50) of the same molecule?
Its CC50 is 45.4 µM.

What about the GI50 (SNB-19 (CNS cancer); SNB-19) of the same molecule?
Its GI50 is 11.6 µM.

And the IC (TGI) (SNB-19 (CNS cancer); SNB-19, 48 h, read-out: TGI)?
Its IC (TGI) is 25.3 µM.

What about the CC50 (SNB-19 (CNS cancer); SNB-19, read-out: LC50) of the same molecule?
The CC50 was 55.2 µM.

What about the GI50 (SF-295 (CNS cancer); SF-295) of the same molecule?
The GI50 was 2 µM.

What about the IC (TGI) (SF-295 (CNS cancer); SF-295, 48 h, read-out: TGI) of the same molecule?
The IC (TGI) was 4.04 µM.

And the CC50 (SF-295 (CNS cancer); SF-295, read-out: LC50)?
Its CC50 is 8.15 µM.

What about the GI50 ([2]; NCI-H23) of the same molecule?
Its GI50 is 3.15 µM.

And the IC (TGI) ([2]; NCI-H23, 48 h, read-out: TGI)?
The IC (TGI) was 12.5 µM.

And the CC50 ([2]; NCI-H23, read-out: LC50)?
Its CC50 is 40 µM.

What about the GI50 (UACC-62 (Melanoma); UACC-62) of the same molecule?
Its GI50 is 3.13 µM.

What about the IC (TGI) (UACC-62 (Melanoma); UACC-62, 48 h, read-out: TGI) of the same molecule?
The IC (TGI) was 10.9 µM.

What about the CC50 (UACC-62 (Melanoma); UACC-62, read-out: LC50) of the same molecule?
Its CC50 is 37 µM.

And the GI50 (UO-31 (Renal cancer); Homo sapiens, UO-31)?
Its GI50 is 3.59 µM.

And the IC (TGI) (UO-31 (Renal cancer); Homo sapiens, UO-31, 48 h, read-out: TGI)?
Its IC (TGI) is 15.7 µM.

And the CC50 (UO-31 (Renal cancer); Homo sapiens, UO-31, read-out: LC50)?
Its CC50 is 42.1 µM.

What about the “Growth % of the Most Sensitive Cell Lines” value (UO-31 (Renal cancer); UO-31, 1 dose 10 µM) of the same molecule?
Its value is −98.13%.

And the GI50 (DU-145 (Prostate cancer); DU-145)?
Its GI50 is 2.25 µM.

What about the IC (TGI) (DU-145 (Prostate cancer); DU-145, 48 h, read-out: TGI) of the same molecule?
The IC (TGI) was 5.02 µM.

What about the CC50 (DU-145 (Prostate cancer); DU-145, read-out: LC50) of the same molecule?
The CC50 was 13.8 µM.

What about the GI50 (SK-MEL-28 (Melanoma); SK-MEL-28) of the same molecule?
The GI50 was 5.87 µM.

What about the IC (TGI) (SK-MEL-28 (Melanoma); SK-MEL-28, 48 h, read-out: TGI) of the same molecule?
Its IC (TGI) is 18.4 µM.

And the CC50 (SK-MEL-28 (Melanoma); SK-MEL-28, read-out: LC50)?
The CC50 was 44 µM.

And the GI50 (MCF7 (Breast cancer); MCF7)?
The GI50 was 3.14 µM.

What about the IC (TGI) (MCF7 (Breast cancer); MCF7, 48 h, read-out: TGI) of the same molecule?
The IC (TGI) was 14.5 µM.

What about the CC50 (MCF7 (Breast cancer); MCF7, read-out: LC50) of the same molecule?
Its CC50 is 46.7 µM.

And the GI50 (T-47D (Breast cancer))?
The GI50 was 5.38 µM.

What about the IC (TGI) (T-47D (Breast cancer); 48 h, read-out: TGI) of the same molecule?
Its IC (TGI) is 20.9 µM.

What about the CC50 (T-47D (Breast cancer); read-out: LC50) of the same molecule?
Its CC50 is 59.5 µM.

What about the “Growth % of the Most Sensitive Cell Lines” value (ACHN (Renal cancer); 1 dose 10 µM) of the same molecule?
Its value is −95.35%.

And the GI50 (ACHN (Renal cancer); Homo sapiens)?
The GI50 was 2.93 µM.

What about the IC (TGI) (ACHN (Renal cancer); Homo sapiens, 48 h, read-out: TGI) of the same molecule?
The IC (TGI) was 9.56 µM.

And the CC50 (ACHN (Renal cancer); Homo sapiens, read-out: LC50)?
The CC50 was 33 µM.

And the GI50 (SW-620 (Colon cancer); SW-620)?
Its GI50 is 5.76 µM.

What about the IC (TGI) (SW-620 (Colon cancer); SW-620, 48 h, read-out: TGI) of the same molecule?
The IC (TGI) was 18.8 µM.

What about the CC50 (SW-620 (Colon cancer); SW-620, read-out: LC50) of the same molecule?
The CC50 was 47 µM.

And the GI50 [3]?
Its GI50 is 2.02 µM.

And the IC (TGI) ([3]; 48 h, read-out: TGI)?
Its IC (TGI) is 4.52 µM.

And the CC50 ([3]; read-out: LC50)?
Its CC50 is 10.4 µM.

And the GI50 (MALME-3M (Melanoma))?
Its GI50 is 2.64 µM.

And the IC (TGI) (MALME-3M (Melanoma); 48 h, read-out: TGI)?
The IC (TGI) was 8.01 µM.

What about the CC50 (MALME-3M (Melanoma); read-out: LC50) of the same molecule?
The CC50 was 32.5 µM.

And the GI50 (EKVX (NSC lung cancer))?
Its GI50 is 2.77 µM.

What about the IC (TGI) (EKVX (NSC lung cancer); 48 h, read-out: TGI) of the same molecule?
The IC (TGI) was 8.27 µM.

What about the CC50 (EKVX (NSC lung cancer); read-out: LC50) of the same molecule?
The CC50 was 38.4 µM.

And the IC (TGI) (Ovarian Cancer subpanel; 48 h, read-out: TGI MG_MID)?
Its IC (TGI) is 15.4 µM.

And the GI50 (Ovarian Cancer subpanel; read-out: GI50 MG_MID)?
Its GI50 is 4.67 µM.

What about the CC50 (Ovarian Cancer subpanel; read-out: LC50 MG_MID) of the same molecule?
Its CC50 is 41.9 µM.

And the GI50 (HOP-92 (NSC lung cancer); HOP-92)?
Its GI50 is 3.1 µM.

What about the IC (TGI) (HOP-92 (NSC lung cancer); HOP-92, 48 h, read-out: TGI) of the same molecule?
Its IC (TGI) is 14.6 µM.

What about the CC50 (HOP-92 (NSC lung cancer); HOP-92, read-out: LC50) of the same molecule?
Its CC50 is 47 µM.

What about the GI50 (SN12C (Renal cancer)) of the same molecule?
The GI50 was 3.34 µM.

And the IC (TGI) (SN12C (Renal cancer); 48 h, read-out: TGI)?
Its IC (TGI) is 12 µM.

And the CC50 (SN12C (Renal cancer); read-out: LC50)?
Its CC50 is 41.7 µM.

And the IC (TGI) (Prostate cancer subpanel; 48 h, read-out: TGI MG_MID)?
The IC (TGI) was 8.66 µM.

What about the GI50 (Prostate cancer subpanel; read-out: GI50 MG_MID) of the same molecule?
The GI50 was 2.65 µM.

What about the CC50 (Prostate cancer subpanel; read-out: LC50 MG_MID) of the same molecule?
The CC50 was 26.2 µM.
